The record followed here is ChEMBL document CHEMBL2429832, “N-substituted 8-aminopentacyclo[5.4.0.0(2,6).0(3,10).0(5,9)]undecanes as σ receptor ligands with potential neuroprotective effects” (Bioorg Med Chem, 2013).

Assay [1] addresses T1, Alpha-2B adrenergic receptor (Homo sapiens) (UniProt P18089).
T1 sequence (whole entry): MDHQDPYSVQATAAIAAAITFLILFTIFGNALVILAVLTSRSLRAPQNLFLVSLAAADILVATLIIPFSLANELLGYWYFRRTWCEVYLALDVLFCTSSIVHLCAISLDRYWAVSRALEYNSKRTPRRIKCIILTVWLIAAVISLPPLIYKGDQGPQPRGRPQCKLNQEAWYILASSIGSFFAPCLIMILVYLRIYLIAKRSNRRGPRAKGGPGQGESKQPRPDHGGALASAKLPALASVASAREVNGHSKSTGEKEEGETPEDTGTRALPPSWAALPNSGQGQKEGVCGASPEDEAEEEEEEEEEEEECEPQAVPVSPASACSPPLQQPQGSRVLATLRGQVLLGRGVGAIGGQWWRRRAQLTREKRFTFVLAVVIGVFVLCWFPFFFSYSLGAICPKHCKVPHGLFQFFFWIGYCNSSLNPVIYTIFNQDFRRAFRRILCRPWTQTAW
The experiment in a line: Inhibition of adrenergic alpha2B receptor (unknown origin) at 10 uM by PDSP assay relative to control.

In assay [2] the target is T2, Muscarinic acetylcholine receptor M1 (Homo sapiens) (UniProt P11229).
T2 sequence (whole entry): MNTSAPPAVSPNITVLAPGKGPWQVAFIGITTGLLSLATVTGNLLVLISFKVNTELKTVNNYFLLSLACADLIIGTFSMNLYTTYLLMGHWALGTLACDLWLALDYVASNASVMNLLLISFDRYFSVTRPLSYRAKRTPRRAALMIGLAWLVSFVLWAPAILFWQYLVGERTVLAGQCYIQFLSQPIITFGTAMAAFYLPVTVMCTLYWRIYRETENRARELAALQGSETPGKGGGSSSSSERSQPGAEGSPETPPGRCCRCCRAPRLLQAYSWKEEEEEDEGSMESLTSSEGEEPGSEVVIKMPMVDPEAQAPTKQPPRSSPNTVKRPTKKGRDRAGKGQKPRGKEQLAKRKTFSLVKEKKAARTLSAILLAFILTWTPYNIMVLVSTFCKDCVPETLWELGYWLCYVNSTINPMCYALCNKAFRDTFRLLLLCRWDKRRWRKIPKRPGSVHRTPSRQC
The experiment in a line: Inhibition of muscarinic M1 receptor (unknown origin) at 10 uM by PDSP assay relative to control.

Assay [3] deals with T3, Muscarinic acetylcholine receptor M2 (Homo sapiens) (UniProt P08172).
T3 sequence (whole entry): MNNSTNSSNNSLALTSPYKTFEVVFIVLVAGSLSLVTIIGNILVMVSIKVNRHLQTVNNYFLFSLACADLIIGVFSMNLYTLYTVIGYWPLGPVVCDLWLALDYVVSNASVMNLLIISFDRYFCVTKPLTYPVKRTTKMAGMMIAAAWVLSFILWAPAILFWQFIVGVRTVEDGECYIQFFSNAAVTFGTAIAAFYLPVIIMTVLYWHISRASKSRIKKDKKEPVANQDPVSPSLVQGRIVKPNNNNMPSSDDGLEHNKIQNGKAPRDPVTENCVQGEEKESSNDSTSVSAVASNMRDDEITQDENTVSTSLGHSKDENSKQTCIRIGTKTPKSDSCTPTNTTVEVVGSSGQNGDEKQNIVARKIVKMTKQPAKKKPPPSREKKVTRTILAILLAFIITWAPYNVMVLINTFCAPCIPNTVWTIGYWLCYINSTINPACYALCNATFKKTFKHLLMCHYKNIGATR
Briefly: Inhibition of muscarinic M2 receptor (unknown origin) at 10 uM by PDSP assay relative to control.

For assay [4], the target named is T4, Alpha-2C adrenergic receptor (Homo sapiens) (UniProt P18825).
T4 sequence (whole entry): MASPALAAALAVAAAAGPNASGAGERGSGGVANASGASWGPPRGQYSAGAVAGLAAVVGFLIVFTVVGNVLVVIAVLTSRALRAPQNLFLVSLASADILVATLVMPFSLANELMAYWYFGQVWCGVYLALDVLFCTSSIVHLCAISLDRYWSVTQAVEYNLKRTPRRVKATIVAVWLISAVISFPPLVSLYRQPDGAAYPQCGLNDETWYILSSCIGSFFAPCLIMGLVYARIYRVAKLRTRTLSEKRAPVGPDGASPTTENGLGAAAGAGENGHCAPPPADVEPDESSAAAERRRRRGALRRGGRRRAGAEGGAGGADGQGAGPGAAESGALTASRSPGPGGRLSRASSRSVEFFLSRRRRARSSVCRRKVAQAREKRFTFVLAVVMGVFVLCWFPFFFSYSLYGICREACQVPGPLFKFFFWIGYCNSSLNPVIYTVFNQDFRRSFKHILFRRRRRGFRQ
The experiment in a line: Inhibition of adrenergic alpha2C receptor (unknown origin) at 10 uM by PDSP assay relative to control.

In assay [5] the target is Muscarinic acetylcholine receptor M3 (Homo sapiens, UniProt P20309). The experiment in a line: Inhibition of muscarinic M3 receptor (unknown origin) at 10 uM by PDSP assay relative to control.
Assay [6] addresses T5, Alpha-2C adrenergic receptor (Homo sapiens, UniProt P18825).
T5 sequence (P18825 whole entry): T4 sequence (whole entry)
The experiment in a line: Inhibition of adrenergic alpha2C receptor (unknown origin) by PDSP assay.

In assay [7] the target is 5-hydroxytryptamine receptor 2A (Homo sapiens, UniProt P28223). Briefly: Inhibition of 5-HT2A receptor (unknown origin) at 10 uM by PDSP assay relative to control.
The target of assay [8] is Sodium-dependent dopamine transporter (Homo sapiens, UniProt Q01959). Briefly: Displacement of [3H]-WIN-35,428 from human DAT expressed in HEK cell membranes at 10 uM relative to control. To be noted: HEK293.
Another assay addresses D(1B) dopamine receptor (Homo sapiens, UniProt P21918). The experiment in a line: Inhibition of dopamine D5 receptor (unknown origin) by PDSP assay.
A further assay addresses Histamine H1 receptor (Homo sapiens, UniProt P35367). Briefly: Inhibition of histamine H1 receptor (unknown origin) by PDSP assay.
Assay [9] concerns the target T6, Alpha-2B adrenergic receptor (Homo sapiens, UniProt P18089).
T6 sequence (P18089 whole entry): T1 sequence (whole entry)
Briefly: Inhibition of adrenergic alpha2B receptor (unknown origin) by PDSP assay.

Sequence of Histamine H1 receptor (P35367 whole entry): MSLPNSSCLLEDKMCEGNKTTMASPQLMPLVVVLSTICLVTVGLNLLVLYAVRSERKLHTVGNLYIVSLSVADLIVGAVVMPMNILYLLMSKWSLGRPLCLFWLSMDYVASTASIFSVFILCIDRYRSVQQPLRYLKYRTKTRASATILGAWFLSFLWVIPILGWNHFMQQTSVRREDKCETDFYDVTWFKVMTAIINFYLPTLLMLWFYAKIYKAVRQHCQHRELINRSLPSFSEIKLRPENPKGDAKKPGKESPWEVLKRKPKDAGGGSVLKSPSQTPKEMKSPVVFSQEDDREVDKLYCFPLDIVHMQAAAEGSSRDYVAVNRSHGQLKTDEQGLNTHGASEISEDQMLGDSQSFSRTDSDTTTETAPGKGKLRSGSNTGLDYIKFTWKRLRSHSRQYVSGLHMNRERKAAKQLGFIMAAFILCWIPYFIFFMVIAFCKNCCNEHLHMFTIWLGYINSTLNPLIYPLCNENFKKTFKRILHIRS
Sequence of 5-hydroxytryptamine receptor 2A (P28223 whole entry): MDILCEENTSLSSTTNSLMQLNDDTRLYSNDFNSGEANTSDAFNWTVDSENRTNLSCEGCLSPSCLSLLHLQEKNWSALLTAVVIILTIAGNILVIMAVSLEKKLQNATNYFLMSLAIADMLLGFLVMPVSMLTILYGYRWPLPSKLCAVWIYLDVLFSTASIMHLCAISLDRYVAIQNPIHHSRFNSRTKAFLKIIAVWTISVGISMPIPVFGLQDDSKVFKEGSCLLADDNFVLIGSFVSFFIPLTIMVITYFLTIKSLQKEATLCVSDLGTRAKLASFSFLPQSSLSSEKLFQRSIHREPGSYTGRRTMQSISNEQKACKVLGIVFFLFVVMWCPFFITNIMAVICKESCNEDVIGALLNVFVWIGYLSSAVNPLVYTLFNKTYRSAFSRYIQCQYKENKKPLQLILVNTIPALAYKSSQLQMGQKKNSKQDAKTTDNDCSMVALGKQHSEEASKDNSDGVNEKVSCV
Sequence of D(1B) dopamine receptor (P21918 whole entry): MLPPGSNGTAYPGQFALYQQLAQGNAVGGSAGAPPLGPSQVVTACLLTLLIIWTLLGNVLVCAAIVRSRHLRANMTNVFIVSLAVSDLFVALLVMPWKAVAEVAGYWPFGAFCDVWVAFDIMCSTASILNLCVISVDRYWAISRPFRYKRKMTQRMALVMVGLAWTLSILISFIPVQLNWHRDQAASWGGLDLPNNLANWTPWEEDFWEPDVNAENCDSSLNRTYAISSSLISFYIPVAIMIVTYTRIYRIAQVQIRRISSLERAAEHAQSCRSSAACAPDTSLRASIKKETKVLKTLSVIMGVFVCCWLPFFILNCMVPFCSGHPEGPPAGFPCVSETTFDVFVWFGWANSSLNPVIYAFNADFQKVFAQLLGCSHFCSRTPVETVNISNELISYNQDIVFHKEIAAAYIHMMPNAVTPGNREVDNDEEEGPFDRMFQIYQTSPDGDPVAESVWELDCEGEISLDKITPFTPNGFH
Sequence of Muscarinic acetylcholine receptor M3 (P20309 whole entry, looked up): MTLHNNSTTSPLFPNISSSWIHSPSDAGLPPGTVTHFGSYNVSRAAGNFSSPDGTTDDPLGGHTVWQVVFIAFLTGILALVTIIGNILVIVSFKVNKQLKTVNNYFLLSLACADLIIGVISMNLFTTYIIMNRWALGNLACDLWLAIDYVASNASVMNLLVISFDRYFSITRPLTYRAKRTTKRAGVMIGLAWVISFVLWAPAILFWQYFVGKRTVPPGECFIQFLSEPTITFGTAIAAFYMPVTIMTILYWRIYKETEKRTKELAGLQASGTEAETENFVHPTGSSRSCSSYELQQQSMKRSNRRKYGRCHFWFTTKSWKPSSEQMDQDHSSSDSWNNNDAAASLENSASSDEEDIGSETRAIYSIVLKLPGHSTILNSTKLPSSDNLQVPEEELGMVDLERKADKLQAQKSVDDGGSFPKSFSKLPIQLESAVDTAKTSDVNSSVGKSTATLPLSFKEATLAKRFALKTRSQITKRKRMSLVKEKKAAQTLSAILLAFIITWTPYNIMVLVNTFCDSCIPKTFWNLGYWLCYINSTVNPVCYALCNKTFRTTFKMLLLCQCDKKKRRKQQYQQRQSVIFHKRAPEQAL
Sequence of Sodium-dependent dopamine transporter (Q01959 whole entry): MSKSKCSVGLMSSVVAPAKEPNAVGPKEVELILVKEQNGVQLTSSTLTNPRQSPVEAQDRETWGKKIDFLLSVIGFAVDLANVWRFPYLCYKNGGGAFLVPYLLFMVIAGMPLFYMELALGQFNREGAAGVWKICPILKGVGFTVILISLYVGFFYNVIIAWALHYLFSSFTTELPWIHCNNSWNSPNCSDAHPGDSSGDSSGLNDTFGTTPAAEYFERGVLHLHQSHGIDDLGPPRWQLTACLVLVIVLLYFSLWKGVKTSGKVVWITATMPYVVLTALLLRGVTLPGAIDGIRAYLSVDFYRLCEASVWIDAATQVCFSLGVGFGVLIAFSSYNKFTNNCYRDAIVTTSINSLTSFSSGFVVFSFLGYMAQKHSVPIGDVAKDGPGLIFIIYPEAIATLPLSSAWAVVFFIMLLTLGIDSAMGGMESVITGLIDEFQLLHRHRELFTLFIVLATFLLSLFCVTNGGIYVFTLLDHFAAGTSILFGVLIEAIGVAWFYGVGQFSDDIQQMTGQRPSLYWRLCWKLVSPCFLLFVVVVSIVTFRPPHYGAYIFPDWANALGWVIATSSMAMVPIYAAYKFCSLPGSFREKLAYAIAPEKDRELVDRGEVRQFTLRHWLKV

On to `CN(Cc1ccccc1)[C@H]1C2C3CC4C5C3CC2C5C41` (stereo partly drawn), for which the inhibition in assay [1], in assay [2], in assay [3], in assay [4] and in [5] was under 50% in each case.
For the compound `COc1cc(CN(C)[C@H]2C3C4CC5C6C4CC3C6C52)cc(OC)c1OC` (stereo partly drawn), the Ki in [6] was 2.52 µM. For the same compound, the inhibition in assay [7], in assay [1], in [2], in [3] and in [5] was under 50% in each case.
`c1ccc(CCN[C@H]2C3C4CC5C6C4CC3C6C52)nc1` (stereo partly drawn): the inhibition in assay [7] and in assay [2] was under 50% throughout.
As to `CN(Cc1cccnc1)[C@H]1C2C3CC4C5C3CC2C5C41` (stereo partly drawn), the inhibition in assay [7], in assay [1], in assay [2], in assay [8], in [4] and in assay [5] was under 50% throughout.
For the compound `CN(Cc1ccc2c(c1)OCO2)[C@H]1C2C3CC4C5C3CC2C5C41` (stereo partly drawn), the inhibition in [7], in assay [1], in assay [2], in [8], in assay [3] and in assay [4] was under 50% each time. In assay [5], this compound showed an inhibition of under 50%. In addition, the Ki on D(1B) dopamine receptor was over 10 µM.
`CN(CC1CCCCC1)[C@H]1C2C3CC4C5C3CC2C5C41` (stereo partly drawn): the inhibition in [7], in assay [1], in [2], in [8], in assay [3] and in [4] was under 50% each time. Also, in assay [5], the inhibition is under 50%.
In assay [2], `c1ccc(CCN[C@H]2C3C4CC5C6C4CC3C6C52)cc1` (stereo partly drawn) yielded an inhibition of under 50%.
Turning to `CN(Cc1cccc(F)c1)[C@H]1C2C3CC4C2C(=O)C2C4C3C21` (stereo partly drawn), the affinity in [6], expressed as Ki, was 5.05 µM. The inhibition in [7], in assay [1] and in assay [2] was under 50% throughout.
Turning to `CN(Cc1cccnc1)[C@H]1C2C3CC4C2C(=O)C2C4C3C21` (stereo partly drawn), the inhibition in assay [7], in [1], in assay [2], in assay [8], in assay [4] and in assay [5] was under 50% throughout. Also, at D(1B) dopamine receptor, the Ki is over 10 µM.
In assay [6], `CN(CCc1ccccc1)[C@H]1C2C3CC4C2C(=O)C2C4C3C21` (stereo partly drawn) gave a Ki of 3.98 µM. The inhibition in [7], in assay [1], in assay [2] and in assay [5] was under 50% throughout.
On to `COc1ccc(CN[C@H]2C3C4CC5C6C4CC3C6C52)cc1OC` (stereo partly drawn), for which the inhibition in assay [7], in assay [2], in assay [8], in assay [3] and in [5] was under 50% in each case. At Histamine H1 receptor, this compound came in with a Ki of 1.36 µM.
For `CN(CCc1ccccc1)[C@H]1C2C3CC4C5C3CC2C5C41` (stereo partly drawn), the Ki in assay [6] stood at 0.865 µM; in assay [9], 1.27 µM. In addition, the inhibition in [2], in assay [8], in assay [3] and in assay [5] was under 50% each time.
With `CN(CCCc1cccc(F)c1)[C@H]1C2C3CC4C2C(=O)C2C4C3C21` (stereo partly drawn), the Ki in [6] amounted to 2.79 µM. Also, the inhibition in assay [7], in assay [1] and in assay [8] was under 50% in each case.
For the compound `c1ccc(CN[C@H]2C3C4CC5C6C4CC3C6C52)cc1` (stereo partly drawn), the inhibition in assay [7], in assay [2], in assay [3], in assay [4] and in [5] was under 50% each time. Besides, at Histamine H1 receptor, the Ki was over 10 µM.
As to `CN(CCc1cccc(F)c1)[C@H]1C2C3CC4C2C(=O)C2C4C3C21` (stereo partly drawn), the Ki was 4.74 µM in [6] and over 10 µM at Histamine H1 receptor. The inhibition in assay [7], in assay [1], in assay [2], in [8] and in [5] was under 50% in each case.
As to `COc1ccc(CN(C)[C@H]2C3C4CC5C3C(=O)C3C5C4C32)cc1OC` (stereo partly drawn), the inhibition in assay [7], in assay [1], in assay [2], in assay [8], in assay [3] and in [4] was under 50% in each case. Also, the inhibition in [5] was under 50%. On D(1B) dopamine receptor, this compound showed a Ki of over 10 µM.
On to `CN(CCc1ccccn1)[C@H]1C2C3CC4C5C3CC2C5C41` (stereo partly drawn), for which the inhibition in [7], in assay [1], in [2], in assay [8], in assay [4] and in assay [5] was under 50% each time.
Take `C1CCC(CN[C@H]2C3C4CC5C6C4CC3C6C52)CC1` (stereo partly drawn): the values for the inhibitory constant (Ki) in [6] and in assay [9] were 1.51 µM and 2.54 µM, respectively. The inhibition in [7], in assay [2], in assay [8] and in assay [5] was under 50% in each case.
With `COc1ccc(CN(C)[C@H]2C3C4CC5C6C4CC3C6C52)cc1OC` (stereo partly drawn), the inhibition constant Ki is 0.993 µM in [6] and over 10 µM at D(1B) dopamine receptor. The inhibition in assay [7], in assay [1], in [2], in assay [8], in [3] and in assay [5] was under 50% throughout.
For `CN(Cc1ccccc1)[C@H]1C2C3CC4C2C(=O)C2C4C3C21` (stereo partly drawn), the inhibition in [7], in assay [1] and in [8] was under 50% each time.
Take `CN(CCc1ccccn1)[C@H]1C2C3CC4C2C(=O)C2C4C3C21` (stereo partly drawn): the Ki in assay [9] is over 10 µM. For the same compound, the inhibition in assay [7], in assay [2], in assay [8], in assay [4] and in [5] was under 50% each time.
For the compound `CN(CCCc1cccc(F)c1)[C@H]1C2C3CC4C5C3CC2C5C41` (stereo partly drawn), the Ki in assay [6] was 3.73 µM. In addition, the inhibition in assay [1], in [2], in assay [8], in assay [3] and in assay [5] was under 50% in each case.
